Test results from patent US20160287515A1, “REGIMEN AND METHOD FOR TREATMENT OF TYPE 2 DIABETES” (Omniblend Innovation Pty Ltd, priority 2013, published 2016).

Test system: subject on metformin (type 2 diabetes)
Test: Blood glucose response after a standard meal under three treatment regimens (Example 1)
Format: in vivo, human
Details: control regimen: metformin 500 mg with the standard meal, no pre-meal drink; after overnight fasting
Procedure: This example compares the blood glucose response in a subject on a dosage of metformin of 500 mg (immediate release dosage) taken twice per day using three different treatment regimens after overnight fasting on separate dates.
The three treatment regimens were as follows: • 1. Regimen in accordance with the invention in which a dose of 500 mg mg of metformin as a (immediate release) tablet 30 minutes before a standard meal followed by a standard drink 15 minutes before the standard meal. Blood glucose levels with time are shown in plot 1 of FIG. 1. • 2. Control Regimen in which the metformin medication was administered with the standard meal without the pre-meal drink. Blood glucose levels with time are shown in plot 2 of FIG. 1. • 3. Comparison regimen in which the standard drink was administered 15 minutes before a meal and the metformin medication was administered with the standard meal. Blood glucose levels with time are shown in plot 3 of FIG. 1.
The standard pre-meal drink used in Example 1 was formed of the following composition: • 20 g WPC-80 • 5 g guar gum • 150 ml water
The drink was prepared by mixing the powder with water according to the following procedure: • 20 g of WPC80 (whey protein concentrate) and 5 g of guar gum were mixed together as a powder. […] The lid was removed ready for the participant to consume immediately. […]

Structure (SMILES): CN(C)C(=N)N=C(N)N [metformin, Metformin]
- post-prandial blood glucose with time (FIG. 1, Plot 2): significant rise in post-prandial glucose for a period of over 60 minutes
